Assay results from US10174132B2, “Heparan sulfate synthesis” (UNIVERSITY OF GEORGIA RESEARCH FOUNDATION, INC., priority 2009, dated 2019).
pIC50: −log10 of the molar value. Counter-ions that a name gives are not always drawn. Like-named read-outs stand apart in the source and are kept apart here.

Biological target: T1, recombinant human BACE-1 (Homo sapiens, UniProt P56817)
T1 construct: purchased R & D Systems
Assay: BACE-1 FRET peptide cleavage assay
Type: biochemical
Conditions: FRET peptide with Swedish variant, 20 mM sodium acetate, 0.1% Triton-X-100, pH 4.5, 2 h, 25° C., triplicate; for IC50: read-out: IC50 (μg/ml), inhibitory activity for cleavage of FRET peptide by BACE-1 (converted); for pIC50: read-out: IC50 (μmol), inhibitory activity for cleavage of FRET peptide by BACE-1
Experimental: The ability of the HS oligosaccharides to inhibit BACE-1 cleavage of APP was assessed using a fluorescent resonance energy transfer (FRET) peptide cleavage assay employing the Swedish amino acid variant FRET peptide 5-FAM-Glu-Val-Asn-Leu-Asp-Ala-Phe-Lys(QXL520)-OH. When intact, the amino terminal fluorophore is quenched, but upon enzymatic cleavage, it is released from quencher and fluoresces at 520 nm.
BACE inhibition assays: The ability of the compounds to inhibit BACE-1 cleavage of APP was assessed using a fluorescent resonance energy transfer (FRET) peptide cleavage assay employing the FRET peptide HiLyteFluor™488-Glu-Val-Asn-Leu-Asp-Ala-Glu-Phe-Lys(QXL520)-OH (Anaspec Inc, San Jose, Calif.), containing the Swedish amino acid variant. Assays were performed in triplicate in 96-well black plates (Greiner Bio-One Ltd) in a total volume of 100 μl of 20 mM sodium acetate, 0.1% Triton-X-100, pH 4.5 using 114 pmoles FRET peptide/well and 0.1 μg of recombinant human BACE-1 (R & D Systems; specific activity >3.5 pmol/min/μg). Inhibitors were added at 0.01 to 50 μg/mL and mixed with enzyme prior to addition of substrate. Appropriate controls for enzyme activity and background fluorescence were employed and plates were incubated (2 h, 25° C.) with reaction stopped by addition of 100 μl 2.5 M sodium acetate. Fluorescence 480ex/520em was measured on a Polarstar plate reader (BMG LabTechnologies, U.K.) and data were analyzed by plotting log concentration of inhibitor against percent inhibition and using a logistic sigmoidal curve fitting function using OriginPro 8 software (OriginLab Corporation, MA).

T1 sequence (P56817 46-501): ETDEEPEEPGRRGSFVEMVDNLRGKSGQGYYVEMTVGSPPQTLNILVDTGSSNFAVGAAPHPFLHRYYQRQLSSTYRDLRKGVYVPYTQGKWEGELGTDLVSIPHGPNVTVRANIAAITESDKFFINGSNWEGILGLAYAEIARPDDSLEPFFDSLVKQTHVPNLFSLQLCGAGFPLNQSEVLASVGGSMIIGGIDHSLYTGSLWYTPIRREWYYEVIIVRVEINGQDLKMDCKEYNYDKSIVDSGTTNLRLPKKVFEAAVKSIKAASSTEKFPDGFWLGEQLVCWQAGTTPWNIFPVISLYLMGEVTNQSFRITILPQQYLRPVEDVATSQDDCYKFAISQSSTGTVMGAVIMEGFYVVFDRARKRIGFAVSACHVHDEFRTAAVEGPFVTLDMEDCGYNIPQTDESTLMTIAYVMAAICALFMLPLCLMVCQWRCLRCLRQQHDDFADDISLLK

Structure (SMILES)	IC50 [µM]	pIC50
CC(=O)NC1C(OC2C(C(=O)O)OC(OC3C(COS(=O)(=O)O)OC(OCCCCCN)C(NC(C)=O)C3O)C(OS(=O)(=O)O)C2O)OC(COS(=O)(=O)O)C(OC2OC(C(=O)O)C(O)C(O)C2O)C1O [Compound 85, 5-Aminopentyl [((3-D-glucopyranosyluronate)-(1→4)-O-(2-acetamido-2-deoxy-6-O-sulfonato-α-D-glucopyranoside)-(1→4)-O-(2-O-sulfonato-α-L-idopyranosyluronate)]-(1→4)-2-deoxy-2-acetamido-6-O-sulfonate-α-D-glucopyranosidepentasodium salt]	152	3.86
NCCCCCOC1OC(COS(=O)(=O)O)C(OC2OC(C(=O)O)C(OC3OC(COS(=O)(=O)O)C(OC4OC(C(=O)O)C(O)C(O)C4O)C(O)C3NS(=O)(=O)O)C(O)C2OS(=O)(=O)O)C(O)C1NS(=O)(=O)O [Compound 86, 5-Aminopentyl [(β-D-glucopyranosyluronate)-(1→4)-O-(2-deoxy-2-sulfamino-6-O-sulfonate-α-D-glucopyranoside)-(1→4)-O-(2-O-sulfonate-α-L-idopyranosyluronate)-(1→4)-2-deoxy-2-sulfoamino-6-O-sulfonate-α-D-glucopyranosideheptasodium salt]	> 255	–
NCCCCCOC1OC(COS(=O)(=O)O)C(OC2OC(C(=O)O)C(OC3OC(COS(=O)(=O)O)C(OC4OC(C(=O)O)C(OC5OC(COS(=O)(=O)O)C(OC6OC(C(=O)O)C(O)C(O)C6O)C(O)C5NS(=O)(=O)O)C(O)C4O)C(O)C3NS(=O)(=O)O)C(O)C2O)C(O)C1NS(=O)(=O)O [Compound 69, 5-aminopentyl [(β-D-glucopyranosyluronate)-(1→4)-(2-deoxy-2-sulfoamino-6-O-sulfonato-α-D-glucopyranoside)-(1→4)-O-(α-L-idopyranosyluronate)-(1→4)-O-(2-deoxy-2-sulfoamino-6-O-sulfanate-α-D-glucopyranoside)-(1→4)-(β-D-glucopyranosyluronate)]-(1→4)-O-2-deoxy-N-sulfoamino-6-O-sulfonate-α-D-glucopyranoside nonasodium salt]	40.1	4.44

Second part, the compound after the results:

IC50 [µM]	pIC50	Structure (SMILES)
102	4.03	CC(=O)NC1C(OC2C(C(=O)O)OC(OC3C(COS(=O)(=O)O)OC(OCCCCCN)C(NC(C)=O)C3O)C(O)C2O)OC(COS(=O)(=O)O)C(OC2OC(C(=O)O)C(O)C(O)C2O)C1O [Compound 80, 5-aminopentyl [(α-L-idopyranosyluronate)-(1→4)-O-(2-acetamido-2-deoxy-6-O-sulfonate-α-D-glucopyranoside)-(1→4)-O-(β-D-glucopyranosyluronate)]-(1→4)-(2-acetamido-2-deoxy-6-O-sulfonate-α-D-glucopyranosidetetrasodium salt]
> 294	–	CC(=O)NC1C(OC2C(C(=O)O)OC(OC3C(COS(=O)(=O)O)OC(OCCCCCN)C(NC(C)=O)C3O)C(O)C2O)OC(COS(=O)(=O)O)C(OC2OC(C(=O)O)C(O)C(O)C2O)C1O [Compound 78, 5-Aminopentyl[β-D-glucopyranosyluronate-(1→4)-(2-acetamido-2-deoxy-6-O-sulfonate-α-D-glucopyranoside)-(1→4)-α-L-idopyranosyluronate)]-(1→4)-2-acetamido-2-deoxy-6-O-sulfonate-α-D-glucopyranoside tetrasodium salt]
38.2	4.46	CC(=O)NC1C(OC2C(C(=O)O)OC(OC3C(COS(=O)(=O)O)OC(OCCCCCN)C(NC(C)=O)C3O)C(O)C2O)OC(COS(=O)(=O)O)C(OC2OC(C(=O)O)C(O)C(O)C2O)C1O [Compound 76, 5-aminopentyl [(β-D-glucopyranosyluronate)-(1→4)-(2-acetamido-2-deoxy-6-O-sulfanate-α-D-glucopyranoside)-(1→4)-O-(β-D-glucopyranosyluronate-(1→4)-O-2-acetamido-2-deoxy-6-O-sulfanate-α-D-glucopyranosidetetrasodium salt]
34.2	4.49	CC(=O)NC1C(OC2C(C(=O)O)OC(OC3C(COS(=O)(=O)O)OC(OCCCCCN)C(NC(C)=O)C3O)C(O)C2O)OC(COS(=O)(=O)O)C(OC2OC(C(=O)O)C(O)C(O)C2O)C1O [Compound 82, 5-aminopentyl [(α-L-idopyranosyluronate)-(1→4)-(2-acetamido-2-deoxy-6-O-sulfonate-α-D-glucopyranoside)-(1→4)-O-(α-L-idopyranosyluronate-(1→4)-O-2-acetamido-2-deoxy-6-O-sulfonate-α-D-glucopyranosidetetrasodium salt]
> 272	–	CC(=O)NC1C(OC2C(C(=O)O)OC(OC3C(COS(=O)(=O)O)OC(OCCCCCN)C(NC(C)=O)C3O)C(OS(=O)(=O)O)C2O)OC(COS(=O)(=O)O)C(OC2OC(C(=O)O)C(O)C(O)C2O)C1O [Compound 84, 5-Aminopentyl [(α-L-idopyranosyluronate)-(1→4)-O-(2-acetamido-2-deoxy-6-O-sulfonate-α-D-glucopyranoside)-(1→4)-O-(2-O-sulfonato-α-L-idopyranosyl-uronate)]-(1→4)-2-deoxy-2-acetamido-6-O-sulfonate-α-D-glucopyranoside penta sodium salt]
